The test system of data set [1] is mature human miR-208a (22 nucleotide RNA complement). In words: Duplex melting temperature (Tm) of anti-208a oligonucleotides annealed to complementary RNA. It counts as binding. Conditions: for Tm: RNA complement; for ΔTm, DNA: difference to fully DNA phosphodiester 10931. How it is done:
The melting temperature (Tm) of modified 16 nucleotide phosphodiester strands were determined and compared to the Tm of identical 16 nucleotide sequences having natural phosphodiester DNA nucleotides. Specifically, the relative aminoCBBN melting temperature (Tm) compared to the 2′-deoxynucleoside or oxoCBBN nucleoside with the same nucleobase was determined on a per incorporation basis by determining the difference between the melting temperature of the amino-modified 16 nucleotide length phosphodiester strand and that of the identical 16 nucleotide sequence utilizing either the 2′-deoxynucleoside or oxoCBBN phosphodiester DNA nucleotide. Tm differences of substitutions were compared only when they were placed in the same position of the sequence.
For example, the modified anti-208a oligonucleotides were annealed to the complementary sequence, twenty-two nucleotides in length, comprised of RNA nucleosides and a phosphate backbone. The complementary sequence was identical to the endogenous mature miRNA. Thermal denaturation temperatures (Tm) were measured as a maximum of the first derivative plot of melting curvex (A260 vs. Temp). The duplexes were constituted at 1 μM in a 0.9% NaCl buffer. Temperature was ramped from 25° C. to 95° C. at 1° C./min and OD's at 260 nm were read once per 30 seconds. Tm values are averages of at least two measurements.
Duplex melting temperatures for various modifications of a 16 nucleotide sequence, complementary to a nucleotide sequence of mature human miR-208a were measured using a Varian Cary 1E UV-Vis Spectrophotometer. Anti-miRNA 208a oligonucleotide sequences tested included a fully DNA phosphodiester (compound M-10931 (SEQ ID NO:9)), four DNA phosphodiester oligonucleotides with 1, 2 or 3 aminoCBBN thymidine residues in place of dT residues (compounds M-11915 (SEQ ID NO: 1), M-11916 (SEQ ID NO:2), M-11917 (SEQ ID NO:3), and M-11918 (SEQ ID NO:4)), mixed 9 LNA/7 DNA phosphorothioate oligonucleotide (compound M-10101 (SEQ ID NO:10)), and 2 mixed LNA/DNA/aminoCBBN phosphorothioate oligonucleotides where LNA thymidines of the parent compound, compound M-10101 (SEQ ID NO: 10), were replaced with either 1 or 2 aminoCBBN residues (compounds M-11920 (SEQ ID NO:6) and M-11919 (SEQ ID NO:5)). Duplexes were constituted at 1 μM in 0.9% NaCl. Temperature was ramped from 25° C. to 95° C. at 1° C./min and OD's at 260 nm were read once per 30 seconds.

The subject of the next data set is miR-208a. In words: Dual-luciferase reporter assay in HeLa cells stably expressing miR-208a. The data set is classed as cell-based, human. Conditions: FIG. 4; renilla/firefly luminescence, 24 hours after transfection, in words. How it is done: A HeLa cell line stably expressing miR-208a was generated. Specifically, a miRNA expression vector (Cell BioLabs, Inc.) expressing miR-208a was transfected into HeLa cells. Cells were then selected using a puromycin selection screen and clones which had detectable miR-208a expression as measured by qPCR were isolated (Ct value=˜30).
The cells were plated in a black-walled 96 well plate with 10,000 cells per well. After twenty-four hours following plating, the cells were transfected with a dual-luciferase plasmid containing the miR-208a binding site in the 3′ UTR of the renilla gene and various miR-208a inhibitors (compounds M-11919 (SEQ ID NO:5), M-11920 (SEQ ID NO:6), and M-10101 (SEQ ID NO:10)). Compound M-10591 was a non-targeting control. The cells were incubated for 24 hours at 37° C. and then both firefly (as a transfection normalization) and renilla levels were measured by luminescence using the Dual-Luciferase Reporter Assay System (Promega). Data was normalized to cells treated with only the miR-208a dual luciferase plasmid (psi check 208a).

Another data set deals with RNA Complement. Conditions: Table 3, cited from earlier work; for Tm: DNA 9mer, phosphate backbone, RNA complement, literature values.
[2] abbreviates: Table 3, PS backbone 10101-like.
[3] abbreviates: Table 3, PS backbone, versus parent 10101.
The mark [4] stands for this setting: Table 1, phosphate backbone, duplex 1 μM in 0.9% NaCl.

“Also recorded” adds a separate entry of the source. Oligonucleotides are written 5' to 3', each unit as a sugar letter and its base; * is a phosphorothioate linkage, no mark a phosphodiester; rarer units and linkages stand in square brackets, end groups in braces. Plain capitals give the bases only. [aminoLNA-N] = amino locked nucleic acid nucleoside (N: the base); l = locked nucleic acid (LNA); d = 2'-deoxy (DNA)

Take “ICs; dTs; dTs; dTs; ITs; ITs; dGs; ICs; dTs; ICs; IGs; dTs; ICs; dTs; ITs; IA [Compound M-10101, reference compound]”: the Tm in data set [1] (setting [2]) turned out to be 86.7 °C.
For “lCs.dTs.dTs.dTs.lTs.lTs.dGs.lCs. dTs.lCs.lGs.dTs.lCs.dTs.abTs.lA [Compound M-11920]”, the Tm in data set [1] (setting [2]) came to 85.125 °C. For the same substance, in data set [1] (setting [3]), the “ΔTm, parent” value is −1.575 °C and the ΔTm/mod is −0.7875 °C/modification. For the same substance, the “Affinity for the miR-208a RNA (Tm data, in words)” value in data set [1] (comparison of M-11920 with M-11919) is on record as “less affinity for the miR-208a RNA than the M-11919”. Further, the miR-208a inhibition activity entry with miR-208a is listed as “slightly less activity compared to the other two inhibitors”.
“bC.bT.bT.bT.bT.bT.dG.bC.bT.bC. dG.bT.bC.bT.bT.dA [Compound M-10924]”: in data set [1] (Table 1), the “ΔTm, DNA” value turned out to be 36.7 °C. In data set [1] (Table 1, per modification, versus DNA), the ΔTm/mod came to 2.8 °C/modification. Besides, in data set [1] (setting [4]), the Tm stood at 89.8 °C.
Regarding “dG; IT; dG; dA; IT; dA; IT; dG; dC (DNA dGlTdGdAlTdAlTdGdC) [DNA_9mer_PO_3LNA-T, literature DNA 9mer phosphodiester with three LNA-T]”, the Tm with RNA Complement was 50 °C.
On to “dC; dT; dT; dT; dT; dT; dG; dC; dT; dC; dG; dT; dC; dT; dT; dA (DNA CTTTTTGCTCGTCTTA; unmodified DNA) [Compound M-10931, reference compound]”, for which the “ΔTm, DNA” value in data set [1] (Table 1) amounted to 0 °C. For the same substance, the Tm in data set [1] (setting [4]) was determined as 53.1 °C.
As for “lCs.dTs.dTs.dTs.abTs.abTs.dGs. lCs.dTs.lCs.lGs.dTs.lCs.dTs.lTs.lA [Compound M-11919]”, the Tm in data set [1] (setting [2]) came to 80.04 °C. Further, in data set [1] (setting [3]), the “ΔTm, parent” value is −6.66 °C and the ΔTm/mod was −6.66 °C/modification. In addition, in the data set on miR-208a, the miR-208a inhibition activity entry is reported as “comparable activity as compound M-10101; also recorded: retains all activity of the optimized M-10101”.
Take “dG; aIT; dG; dA; aIT; dA; aIT; dG; dC (DNA dG[aminoLNA-T]dGdA[aminoLNA-T]dA[aminoLNA-T]dGdC) [DNA_9mer_PO_3aminoLNA-T, literature DNA 9mer phosphodiester with three aminoLNA-T]”: the Tm in the data set on RNA Complement is 47 °C. Further, in the data set with RNA Complement (aminoLNA 9mer versus LNA 9mer), the “ΔTm, parent” value is −1 °C and the ΔTm/mod is −1 °C/modification.

(Values after US10030042B2, “Synthesis of bicyclic nucleosides” (MiRagen Therapeutics, Inc., priority 2014, dated 2018).)
